Measurements: patent US8808718B2, “Hypertonic organic acid or salt thereof disinfectant composition and its use in dental treatment” (Nikinc Pharma B.V., priority 2010, dated 2014)
Values joined by “and” are separate entries in the source; they are usually repeats but may differ in a detail not shown here. Identical values can stand only once. Like-named read-outs stand apart in the source and are kept apart here.

Assays:
Enterococcus faecalis = conditions: for mean log reduction of CFU compared with the controls: E. faecalis in dual-species biofilm; for significance of reduction of E. faecalis vs negative controls (ANOVA): α=0.05
Experimental: (§1) In brief, round glass cover slips attached to a custom made stainless steel lid, were suspended in medium inoculated with bacteria.
(§2) Cells of E. faecalis V583 and P. aeruginosa, both clinical isolates, were grown and maintained as pure cultures on blood agar plates. E. faecalis was grown under anaerobic conditions (80% N2, 10% H2 and 1.0% CO2) while P. aeruginosa was grown in air, both at 37° C. Because of their shape, Gram-staining and atmospheric preferences, distinguishing between the two species with (ISM and CFU was fairly simple. Growth media for overnight cultures and biofilms were Brain Heart Infusion Broth (BHI, Oxoid, Basinstoke, UK) and BHI-broth contained 0.5 BHI, 50 mM pipes, 5% saccharose, 1 mM Ca^2+ during biofilm growth. In the experimental phase, sodium chloride (NaCl), (Merck, Darmstadt, Germany) was added to the BHI-broth to raise the osmotic value. Other medicaments used were saturated Ca(OH) in BHI-broth (slurry), 2% sodium hypochlorite (NaOCl), Merck, Darmstadt, Germany), 2% sodium thiosulphate (STS) in peptone water (1% peptone (Oxoid) in water) for neutralising the NaOCl. Phosphate buffered saline (PBS, Oxoid) was used to wash the negative controls, as a neutralising agent for NaCl, Ca(OH)2 and for serial
(§3) Fresh cultures of each micro-organism were obtained by suspending one loopful bacteria in 5 mL BHI and grown overnight at 37° C. in air. Numbers of CFU were estimated by optical density measurement at 600 nm and relating the readings to previously performed bacterial counts. 100 μL with approximately 2×10^9 E. faecalis and 100 μL with approximately 2×10^7 P. aeruginosa were inoculated in wells of a 24 Well Multiwell Plate (Greiner Bio-one, Frickenhausen, Germany) containing 1.5 mL BHI-broth. Round glass cover slips (MMG, Germany), diameter 15 mm, mounted in a custom-made stainless steel lid, were suspended in the BHI-broth. Biofilms were grown on glass cover slips to be able to monitor the biofilm growth with a confocal laser scanning microscope (CLSM; Leica SP2-OBS). The biofilms were firmly attached on the glass slips, allowing manipulation of the coverslips without biofilm disruption.
(§4) Biofilms were grown on the coverslips for 96 h before exposure to the medicaments. […] The broth was refreshed daily. Inoculation of bacteria and the biofilm growth took place at 37° C. in air. After 48 h biofilm growth was confirmed with the aid of CLSM. Three coverslips with attached biofilms were viewed with CLSM after staining with Syto 9 and propidium iodine (PI) (LIVE/DEAD® BacLight™) according to the manufacturer's instruction. Intact, live cells stain fluorescent green, while dead cells with damaged plasma membranes stain fluorescent red.
(§5) After 96 h the coverslips with the attached bio films were submerged in NaCl-broth or Ca(OH)2-broth for 4 h, 24 h, 48 h, 72 h and 168 h. The negative controls were kept in BHI-broth. Where applicable, the incubation fluids were refreshed daily. Submersion in NaOCl 2% for 10 min served as a positive control.

[1] = test system: biofilm of Enterococcus faecalis and Pseudomonas aeruginosa; experiment: Dual-species biofilm model, whole biofilm (total kill, plaque observation); type: cell-based; conditions: for visual observation of biofilm plaque on glass coverslips: after the experimental phase, calcification seen after 24 h
From the text: The broth was refreshed daily. […] Later on biofilm growth was confirmed clinically. […] Colonies were very small. […] For imaging a Leica DM-IRB inverted microscope/SP2-AOBS confocal system was used. Images (512*512 pixels) were acquired with a 40×/NA 1.25 HCX PL APO oil objective. The final pixel size was 0.776 μm. […] Image stacks were acquired with a stepsize of 0.3 μm. Excitation/detection of Syto-9 and propidium iodide (PI) was done simultaneously with 488 nm excitation and with 500-550 nm detection for SYTO 9 and 600-690 nm detection for PI respectively.

Pseudomonas aeruginosa = conditions: for mean log reduction of CFU compared with the controls: P. aeruginosa in dual-species biofilm; for significance of reduction of P. aeruginosa vs negative controls (ANOVA): α=0.05
Experimental: as §1, §2, §3, §4, §5

[2] = dual-species biofilms exposed to Ca(OH)2

[Ca+2].[OH-].[OH-] [Ca(OH)2, calcium hydroxide]
mean log reduction of CFU compared with the controls (Enterococcus faecalis; 72 h exposure): 2 log CFU | mean log reduction of CFU compared with the controls (Enterococcus faecalis; 168 h exposure): 1 log CFU | significance of reduction of E. faecalis vs negative controls (ANOVA) (Enterococcus faecalis): not significant | effectiveness in the biofilm model (conclusion) [1]: not effective | visual observation of biofilm plaque on glass coverslips [1]: all samples showed bio film calcification | bacterial reduction after a week (end of experiment) [1, 2]: tenfold | bacterial reduction, initial [1, 2]: hundredfold | mean log reduction of CFU compared with the controls (Pseudomonas aeruginosa; 72 h exposure): 2 log CFU | mean log reduction of CFU compared with the controls (Pseudomonas aeruginosa; 168 h exposure): 1 log CFU | significance of reduction of P. aeruginosa vs negative controls (ANOVA) (Pseudomonas aeruginosa): significantly

[Cl-].[Na+] [NaCl, sodium chloride]
mean log reduction of CFU compared with the controls (Enterococcus faecalis; 72 h exposure): 6 log CFU | mean log reduction of CFU compared with the controls (Enterococcus faecalis; 168 h exposure): 8 log CFU | mean remaining CFU of E. faecalis (Enterococcus faecalis; after 168 h exposure): 40 CFU | significance of reduction of E. faecalis vs negative controls (ANOVA) (Enterococcus faecalis): highly significant | reductions after a week's exposure ([1]; 6.2 M NaCl in broth, dual species biofilm, one value per species, species not assigned): 10^8 and 10^7 | visual observation of biofilm plaque on glass coverslips [1]: no signs of a biofilm plaque | mean log reduction of CFU compared with the controls (Pseudomonas aeruginosa; 72 h exposure): 6 log CFU | mean log reduction of CFU compared with the controls (Pseudomonas aeruginosa; 168 h exposure): 8 log CFU | P. aeruginosa CFU detected after exposure (Pseudomonas aeruginosa; after 168 h exposure, control biofilms 1.5×10^9 CFU): none could be detected | significance of reduction of P. aeruginosa vs negative controls (ANOVA) (Pseudomonas aeruginosa): highly significant

OCl [NaOCl, sodium hypochlorite]
kill ([1]; 2% NaOCl, 10 min exposure): 100%
